This is an account of results in patent US10816541B2, “Method for predicting side effect of whitening ingredient” (AMOREPACIFIC CORPORATION, priority 2015, dated 2020).

Structures are written as SMILES. “Also recorded” adds a separate entry of the source. Read-outs that look alike come from different tables or passages of the source.

In general, CC50 refers to the concentration that lowers cell viability or growth by half. Low values mean harm at low concentration, high ones better tolerance by the cells.

Series [1] can be described thus: Cytotoxic concentration for HEMn-MP cells depending on treatment time (CCK-8, Test Example 1-1). The format is cell-based, human. The settings on record: human, HEMn-MP cells (human epidermal melanocytes); for CC50 at 1 day: Day 1; for CC50 at 7 days: Day 7. The protocol:
(§1) The HEMn-MP (human epidermal melanocytes, neonatal, moderately pigmented donor, Cat. No. C-102-5C) cells were purchased from Life Technologies (USA). As a cell culture medium, medium 254 (Cat. No. M-254-500) supplemented with HMGS (Cat. No. S-002-5) was used. The cells were cultured according to the manufacturer's manual and cells during passages 3-8 were used. To summarize, the cells were cultured on a 175 T flask in a 5% CO2 incubator at 37° C. During subculturing, the cells were separated using 0.05% trypsin-EDTA, collected by centrifugation (1200 rpm, 5 minutes) and cultured after seeding to 5×10^3 cells/cm^2. For cytotoxicity test, the cells were seeded onto a 96-well plate with 2×10^4 cells/well, cultured for a day and treated with each substance at 200 μL/well. Then, cytotoxicity was measured after a predetermined time.
(§2) Cytotoxicity was measured with Cell Counting Kit-8 (CCK-8) manufactured by Dojindo Molecular Technologies (USA). After removing the medium from the 96-well plate, 200 μL of 10% CCK-8 in the same medium was added to each well. After incubation at 37° C. for about 2 hours, absorbance of 100 μL of the medium was measured at 450 nm using an ELISA reader. As the cells […], the color of CCK-8 shifts to longer wavelength from colorless to orange color.
(§3) Cell survivability was calculated according to Equation 1. Cell survivability (%)={(Asample−Ab)/(Ac−Ab)}×100 [Equation 1]
(§4) In order to determine the cytotoxic concentration of the whitening ingredients for HEMn-MP (human epidermal melanocytes, neonatal, moderately pigmented donor, Cat. No. C-102-5C) cells, cell survivability (% cell survival rate) was measured as compared to a control group (0.5% DMSO) on days 1 and 7 after treatment with each whitening ingredient at the concentration described in Table 1 (FIG. 2). Based on the measurement result, CC20 and CC50 were calculated for the whitening ingredients and treatment time. Then, the ratio of the cytotoxic concentration on day 7 as compared to day 1 was calculated (Table 2).

The test system of series [2] is HEMn-MP cells. Described as above. It counts as cell-based, human. On the procedure: as §1, §2, §3, §4
A short description of series [3]: Cytotoxic concentration for A375 cells depending on treatment time (CCK-8, Test Example 1-2). The format is cell-based, human. The settings on record: human, A375 cells (melanoma cell line), A375 cells; for CC50 at 24 hours: Day 1 (24 hours); for CC50 at 3 days: Day 3. The protocol:
(§5) The A375 (human melanoma cell line) cells were purchased from the ATCC (Cat. No. CRL-1619, USA). As a cell culture medium, DMEM (Cat. No. 12-604, Lonza, USA) supplemented with 10% FBS (Cat. No. 16000-044, Gibco, USA) was used. Subculturing and cytotoxicity test were conducted in the same manner as for the HEM cells.
as §2, §3
(§6) The cytotoxicity of the whitening ingredients for A375 (human melanoma cell line, Cat. No. CRL-1619) cells with different treatment time was investigated. The toxicity was measured for 3 different sample treatment conditions. The cytotoxicity was measured after treating with the whitening ingredients for 24 hours, after treating with the samples for 24 hours and 48 hours later after exchanging with fresh media, and after treating with the samples for 72 hours without exchange of media. The result is shown as graphs (FIG. 3). Based on the measurement result, CC20 and CC50 were calculated for the whitening ingredients and treatment time. Then, the ratio of the cytotoxic concentration on day 3 as compared to day 1 was calculated (Table 3).

The subject of series [4] is A375 cells. The series is described as above. It counts as cell-based, human. The settings on record: for Change in cytotoxicity after removal of the samples: A375 cells treated for a day, then cultured further for 2 days after removing the samples; for CC20 / CC50: A375 cells. The protocol: as §5, §2, §3, §6
For series [5], the system named is HEMn-MP cells. Kind of series: Inhibition of melanin production in HEMn-MP cells and correlation factor with cytotoxic concentration (Test Example 2). It counts as cell-based, human. The settings on record: for CC20/EC50 / CC50/EC50 / EC50: HEMn-MP cells, day 7; for CC20/EC50: 20% cytotoxic concentration divided by EC50 of melanin production; for CC50/EC50: 50% cytotoxic concentration divided by EC50 of melanin production; for EC50: read-out: EC50 (50% inhibitory concentration of melanin synthesis). On the procedure:
The inhibitory effect of melanin production of the whitening ingredients for HEMn-MP cells was investigated. After treating the cells with the samples at concentrations shown in Table 4 and culturing for 7 days, the amount of melanin was measured as compared to a control group (0.5% DMSO) (FIG. 4). Also, EC50 (50% effective inhibitory concentration of melanin production) was calculated for the whitening ingredients (Table 5). Then, CC20 or CC50 was divided by EC50 to investigate the correlation factor (difference) between the cytotoxicity and the effective inhibitory concentration of melanin production (Table 6).
Table 6 compares the correlation factor between the cytotoxic concentration (CC50) and the inhibitory concentration of melanin synthesis (EC50) of the whitening ingredients on day 7. CC20/EC50 is the value obtained by dividing the 20% cytotoxic concentration by the 50% effective inhibitory concentration of melanin production and represents the correlation factor of the 20% cytotoxic concentration and the effective concentration. CC50/EC50 is the value obtained by dividing the 50% cytotoxic concentration by the 50% effective inhibitory concentration of melanin production and represents the correlation factor of the 50% cytotoxic concentration and the effective concentration.

For series [6], the system named is HEMn-MP cells. Kind of series: Cytotoxicity for HEMn-MP cells with or without UVB radiation (Test Example 3). The settings on record: UVB 20 mJ/cm^3 irradiated vs unirradiated HEMn-MP cells, day 7. It counts as cell-based, human. The text has this:
In order to investigate the effect of UVB radiation on the cytotoxicity of the whitening ingredients, cytotoxicity was compared for groups treated with the whitening ingredients without UVB radiation and groups irradiated with UVB at […] and then treated with the whitening ingredients (FIG. 5). That is to say, the response of the cells excited by UVB radiation to various whitening ingredients was investigated. After irradiating the cells with UVB and treating the cells with the samples, increase in cytotoxicity was determined and the ratio of cytotoxicity as compared to before the treatment was calculated (Table 7).
The ratio (%) of toxicity for the UVB-irradiated cells as compared to UVB-unirradiated cells was determined at representative concentrations (3 points) for each whitening ingredient. The ratio was corrected for the cytotoxicity of the control group (15-20%).

For series [7] the following is noted: consumers of commercialized skin whitening products, cited from earlier work.

Compound `CC(=O)CCc1ccc(O)cc1` [RK, raspberry ketone] had a CC50 at 1 day in series [1] of 10400 ± 200 µM. Moreover, in series [1], the half-maximal cytotoxic concentration (CC50) at 7 days is 1400 ± 400 µM. Moreover, the CC20 in series [2] (Day 1) worked out at 6500 ± 200 µM; in series [2] (Day 7) it was 400 ± 100 µM; in series [4] (Day 1 (24 hours)), 6700 ± 100 µM; in series [4] (Day 3) it was 240 ± 20 µM. In series [3], this compound gave a cytotoxic concentration (CC50) at 24 hours of 10700 ± 100 µM. The compound further displayed a CC50 at 3 days in series [3] of 790 ± 40 µM. Moreover, in series [4], the “Change in cytotoxicity after removal of the samples” value (“Change in cytotoxicity” below) is “continuously increased toxicity”. Moreover, the CC20/EC50 in series [5] is 0.4 Fold. Moreover, in series [5], the CC50/EC50 amounted to 1.4 Fold. For the same compound, the EC50 in series [5] (Homo sapiens, 168 h) is 970 ± 90 µM. The Ratio of cytotoxicity amounted to 19% in series [6] (0.625 mM), 8% in series [6] (1.25 mM) and 26% in series [6] (2.5 mM). The “Clinical side effect reported by users” value in series [7] is “leukoderma-like side effects”.

Compound `CCCCc1ccc(O)cc1O` [RC, 4-butylresorcinol] came in with a CC50 at 1 day in series [1] of 347 ± 12.7 µM. It took 284 ± 20.4 µM to reach half-maximal cytotoxicity in series [1] (CC50 at 7 days). For the same compound, the CC20 in series [2] (Day 1) worked out at 170.2 ± 15.9 µM; in series [2] (Day 7) it was 69.7 ± 6.1 µM; in series [4] (Day 1 (24 hours)), 313.9 ± 10.6 µM; in series [4] (Day 3), 52.73 ± 4.67 µM. In series [3], this compound gave a cytotoxic concentration (CC50) at 24 hours of 508 ± 11.3 µM. Moreover, the cytotoxic concentration (CC50) at 3 days in series [3] was 122 ± 11 µM. Moreover, in series [4], the “Change in cytotoxicity” value is listed as “no more increase in cytotoxicity”. In series [5], the CC20/EC50 is more than 20 Fold. The EC50 in series [5] (Homo sapiens, 168 h) is 2.7 ± 0.6 µM. For the same compound, the Ratio of cytotoxicity in series [6] (31.25 μM), in series [6] (62.5 μM) and in series [6] (125 μM) was 0% throughout. Besides, the “Clinical side effect reported by users” value in series [7] (listed as rucinol) is listed as “no clinical side effect has been reported; also recorded: no clinical problem has been reported”.

For the compound `C[C@@H](O)CCc1ccc(O)cc1` [RD, rhododenol], the CC20 in series [2] (Day 1) was 7100 ± 800 µM; in series [2] (Day 7), 1000 ± 0 µM; in series [4] (Day 1 (24 hours)) it was 4200 ± 200 µM; in series [4] (Day 3) it was 190 ± 10 µM. Besides, the half-maximal cytotoxic concentration (CC50) in series [2] (Day 1) was 10800 ± 700 µM; in series [2] (Day 7), 2400 ± 100 µM; in series [4] (Day 1 (24 hours)), 8400 ± 200 µM; in series [4] (Day 3), 500 ± 20 µM. Also, the “Change in cytotoxicity” value in series [4] is listed as “continuously increased toxicity”. The compound also displayed a CC20/EC50 in series [5] of 0.8 Fold. Besides, the CC50/EC50 in series [5] is 2.1 Fold. The EC50 in series [5] came to 1130 ± 160 µM. Also, the Ratio of cytotoxicity was 24% in series [6] (1.25 mM), 27% in series [6] (2.5 mM) and 15% in series [6] (5 mM). Moreover, the “Clinical side effect reported by users” value in series [7] is “leukoderma-like side effects; also recorded: leukoderma-like symptoms”.

In the case of `Oc1ccc(OCc2ccccc2)cc1` [MB, 4-benzyloxy-phenol], in series [1], half-maximal cytotoxicity (CC50 at 1 day) was put at 284 ± 28.2 µM and it took 19 ± 0.7 µM to reach half-maximal cytotoxicity (CC50 at 7 days). In series [2] (Day 1), this compound came in with a CC20 of 178.2 ± 21.6 µM. This compound also displayed a CC20 in series [2] (Day 7) of 8.9 ± 0.4 µM. In addition, in series [3], the midpoint of cytotoxicity, the CC50 at 24 hours, lay at 295 ± 7.2 µM and the midpoint of cytotoxicity, the CC50 at 3 days, lay at 7.19 ± 0.14 µM. For the same compound, in series [4], the “Change in cytotoxicity” value is “continuously increased toxicity”. This compound also yielded a CC20 in series [4] (Day 1 (24 hours)) of 119.8 ± 4.7 µM. The compound also came in with a CC20 in series [4] (Day 3) of 2.31 ± 0.07 µM. For the same compound, in series [5], the CC20/EC50 is 1.3 Fold and the CC50/EC50 turned out to be 2.8 Fold. The EC50 in series [5] (Homo sapiens, 168 h) came out at 6.8 ± 2.5 µM. The “Clinical side effect reported by users” value in series [7] is “leukoderma-like side effects”.

On to `COc1cc(OC)c(C23CC4CC(CC(C4)C2)C3)cc1C(=O)NCc1ccc(O)cc1O` [AP, 5-adamantan-1-yl-N-(2,4-dihydroxybenzyl)-2,4-dimethoxy-benzoic acid amide], for which, in series [1], the 50% cytotoxic concentration (CC50) at 1 day came out at 5.4 ± 0.3 µM. Besides, the CC50 at 7 days in series [1] was 2.5 µM. Moreover, the CC20 in series [2] (Day 1) came to 3.3 ± 0.4 µM; in series [2] (Day 7), 1.3 ± 0.0 µM; in series [4] (Day 1 (24 hours)), 25.5 ± 0.8 µM; in series [4] (Day 3) it was 17.2 ± 0.09 µM. The compound also had a half-maximal cytotoxic concentration (CC50) at 24 hours in series [3] of 33.8 ± 0.7 µM. Also, the half-maximal cytotoxic concentration (CC50) at 3 days in series [3] stood at 19.99 ± 0.06 µM. Moreover, the “Change in cytotoxicity” value in series [4] is “no more increase in cytotoxicity”. In series [5], the CC20/EC50 came out at 11.8 Fold. In series [5] (Homo sapiens, 168 h), the EC50 came to 0.11 ± 0.01 µM. In addition, the “Inhibitory effect of melanin production by melanocytes” value in series [5] (Test Example 2) is “excellent inhibitory effect of melanin production”. Besides, the Ratio of cytotoxicity was 2% in series [6] (0.39 μM), 14% in series [6] (0.78 μM) and 0% in series [6] (1.56 μM).
